No end group written: not given here.
Experiments:
p815 cell = assay: Cytotoxicity of T lymphocytes from Balb/C mice immunized with pH-sensitive liposomes comprising HIV peptides, Cr51 release; type: in vivo, Balb/C mouse; settings: mice immunized with pH-sensitive liposomes (POPE/CHOH 7:3) comprising the peptide
Method: (§1) In order to investigate whether pH-sensitive liposome as a carrier of peptides can induce CTL response specific to the virus from which the peptides are derived, pH-sensitive liposomes encapsulating synthetic peptides were prepared and cytotoxicity study were carried out in a serial manner. Since the cellular immunity of the pepitides which can bind HLA-A2, a human MHC class I molecule should be investigated employing human body, indirect experiment employing the peptides derived HIV and HCV proteins which can bind mouse MHC Class I molecule(see: Table 4 below), was carried out. In this regard, the pH-sensitive liposome comprising the peptides were obtained employing the phospholipid composition consisting of POPE/CHOH(7:3 in a molar ratio). Then, mice were immunized with the liposomes, T lymphocytes were isolated from the mice, and cytotoxicity of the T lymphocytes after recognition of target cells labelled with Cr^51 was determined.
In case of HIV, Balb/C mouse was immunized with pH-sensitive liposomes comprising R15K or T26K, and at 4 weeks after booster immunization, its spleen was dissected and homogenized in 2 ml of RPMI cell culture medium using a homogenizer. 2 ml of the homogenate thus obtained was added to 2 ml of ficoll and centrifuged at 1,500 rpm for 30 minutes. T lymphocytes located between ficoll and the cell culture medium were separated, added to 15 ml of RPMI-10 cell culture medium, centrifuged at 1,000 rpm, and washed three times with the RPMI-10 medium. The T lymphocytes were diluted to a cell concentration of 5×10^6/ ml into a 24 well-plate, and the immunized peptide antigen was added to a final concentration of 2 μM. Then, the cells were cultured at 37° C. for 3 days in a CO2 incubator containing 5% CO2 and used as effector cells. In case of HCV, 5 week-old C57BL/6 mouse was immunized with liposomes comprising DBL peptide antigen, and T lymphocytes were isolated in the same manner as above and used as effector cells. On the other hand, p815 cell(ATCC TIB64) having MHC Class I same as that of Balb/C mouse was used as a target cell in case of HIV, and RMA cell(see: Hosken, N. A. and Bevan, M. J., J. Exp. Med., 175:719(1992)) or EL4 cell(ATCC TIB39) having MHC Class I same as that of C57BL/6 mouse was used as a target cell in case of HCV.
100 μM of the immunized peptide was added to the respective target cells, reacted at 37° C. for 16 hours, and washed twice with RPMI cell culture medium. Then, radioactive sodium chromate(Cr^51) was added to the cells and reacted at 37° C. for 2 hours in a CO2 incubator. After reaction, the cells were washed sufficiently with RPMI cell culture medium to remove unreacted sodium chromate, mixed with effector cells washed with phosphate buffer solution in various mixing ratios shown in table 5 below, and reacted at 37° C. for 4 hours in a CO2 incubator. The resultant medium was collected and measured for the intensity of gamma ray to determine cytotoxicity of effector cells against target cells(see: Table 5).

T2 cells = assay: Cytotoxicity of peptide-stimulated blood cells (CTL) against T2 cells sensitized by synthesized peptides, Cr51 release; type: cell-based, human; settings: for Specific cytotoxicity by CTL (%): T2 cells sensitized with 100 μg/ml peptide
Method: That is, blood positive to anti-HBV antibody(value obtained by ELISA: 1.0 or more) is collected from common blood donors, and centrifuged to harvest blood cells. The said peptides added in a concentration of 10 μg/ml to leukocytes remained after removing red blood cells from the blood cells, and incubated at 37° C. in a CO2 incubator maintained to contain 5% CO2. At 2 days after culture, 10 unit of interleukin-2 was added to the culture medium and the cells were further cultivated for 3 days. Then, blood cells having the same MHC were inactivated by mitomycin C and added to the culture medium as stimulating cells. And the peptides and interleukin-2 were added to the medium and the cells were further cultivated for 7 days. Then, it was determined whether the blood cells recognize and destruct T2 cells having a certain peptide at their surface, and the results were shown in Table 3 below and FIG. 2, respectively.
Destruction of T2 cell by cultured blood cell was determined as followings: 100 μg/ml of a peptide was added to T2 cells and reacted at 37° C. for 3 hours. Then, the cells were washed sufficiently to remove unreacted peptides, added with radioactive sodium chromate(Cr^51), and reacted at 37° C. for 2 hours in a CO2 incubator. And then, they were washed with RPMI medium sufficiently to remove unreacted sodium chromate, mixed with blood cells washed with PBS in a certain ratio, and reacted at 37° C. for 4 hours in a CO2 incubator. The resultant medium was collected and measured for intensity of gamma ray to determine cytotoxicity of the blood cells against T2 cell, i.e., target cell.

[1] = biological target: T1, HLA-A2.1, a human MHC Class I molecule (Homo sapiens, UniProt P04439, D140Y/D185E/D98H/E176V/E277Q/G131W/G231S/I119V/I121R/I166T/I218V/L300P/L318F/N151K/N90K/P208A/P217A/Q86G/Q94H/R138H/R169H/T345S); assay: Binding of synthetic peptides to MHC Class I molecules at the surface of T2 cell (BB7.2 antibody, fluorocytometry); type: cell-based; settings: peptide 1-100 μg/ml, 37° C., 4 hours; FIG. 1
T1 construct: endogenous in cells; host or cells: T2 cell line
Method: Seven different peptides including the peptides as disclosed in Table 1 above which were derived from HBV X protein were synthesized chemically and dissolved in phosphate buffered saline(hereinafter, referred to as “PBS”). In order to investigate whether the peptides can bind to MHC Class I molecules associated with induction of CTL, each peptide was added to T2 cell line in a concentration of 100, 64, 32, 16, 8, 4, 2 and 1 μg/ml, respectively, and reacted at 37° C. for 4 hours. And then, the cells were washed with PBS to remove unreacted peptides, added with BB7.2 antibody against HLA-A2.1, a human MHC Class I molecule, and reacted at 4° C. for 1 hour. The cells were washed with PBS again, added with fluorescein isothiocyanate(FITC)-conjugated anti-mouse immunoglobulin antibody, and reacted at 4° C. for 1 hour. Then, fluorescence of the cells was determined using fluorocytometer(FACScan, BECTON DICKINSON) and the results were shown in FIG. 1.
However, when T2 cells are cultivated in a medium containing peptides which can bind to MHC molecules, the peptides bind to MHC molecules at the surface of T2 cell to increase stability of MHC molecules, which results in increase in expression of MHC molecule. Based on the knowledge, binding of a specific peptide to MHC molecule at the surface of T2 cell can be analyzed by determining degree of binding of BB7.2 antibody to the cell surface.

RMA cell or EL4 cell = assay: Cytotoxicity of T lymphocytes from C57BL/6 mice immunized with pH-sensitive liposomes comprising HCV peptide, Cr51 release; type: in vivo, C57BL/6 mouse; settings: mice immunized with pH-sensitive liposomes (POPE/CHOH 7:3) comprising the peptide
Method: as §1
In case of HIV, Balb/C mouse was immunized with pH-sensitive liposomes comprising R15K or T26K, and at 4 weeks after booster immunization, its spleen was dissected and homogenized in 2 ml of RPMI cell culture medium using a homogenizer. 2 ml of the homogenate thus obtained was added to 2 ml of ficoll and centrifuged at 1,500 rpm for 30 minutes. T lymphocytes located between ficoll and the cell culture medium were separated, added to 15 ml of RPMI-10 cell culture medium, centrifuged at 1,000 rpm, and washed three times with the RPMI-10 medium. The T lymphocytes were diluted to a cell concentration of 5×10^6/ ml into a 24 well-plate, and the immunized peptide antigen was added to a final concentration of 2 μM. Then, the cells were cultured at 37° C. for 3 days in a CO2 incubator containing 5% CO2 and used as effector cells. […]
100 μM of the immunized peptide was added to the respective target cells, reacted at 37° C. for 16 hours, and washed twice with RPMI cell culture medium. […] The resultant medium was collected and measured for the intensity of gamma ray to determine cytotoxicity of effector cells against target cells(see: Table 5).

[2] = Ratio of CTL against target cell 5:1
[3] = Ratio of CTL against target cell 10:1
[4] = Ratio of CTL against target cell 25:1

Compound	Specific cytotoxicity by CTL (%) (T2 cells; [2])	Specific cytotoxicity by CTL (%) (T2 cells; [3])	Specific cytotoxicity by CTL (%) (T2 cells; [4])	other results
CC[C@H](C)[C@H](NC(=O)[C@@H](NC(=O)[C@@H](NC(=O)[C@H](Cc1ccccc1)NC(=O)[C@H](C)NC(=O)[C@H](CCCNC(=N)N)NC(=O)CNC(=O)[C@@H]1CCCN1C(=O)CNC(=O)[C@H](CCCNC(=N)N)NC(=O)[C@H](CCC(N)=O)NC(=O)[C@@H](NC(=O)[C@@H](N)CCCNC(=N)N)[C@@H](C)CC)C(C)C)[C@@H](C)O)C(=O)NCC(=O)N[C@@H](CCCCN)C(=O)O [R15K, RIQRGPGRAFVTIGK]				Specific cytotoxicity by CTL (%) (p815 cell; target cell:effector cell 1:10): 7.5%; Specific cytotoxicity by CTL (%) (p815 cell; target cell:effector cell 1:20): 15%; Specific cytotoxicity by CTL (%) (p815 cell; target cell:effector cell 1:30): 25%
CC[C@H](C)[C@H](NC(=O)[C@H](CCCNC(=N)N)NC(=O)[C@@H](NC(=O)[C@H](CCCNC(=N)N)NC(=O)[C@H](CCCCN)NC(=O)[C@H](CCCNC(=N)N)NC(=O)[C@@H](NC(=O)[C@H](CC(N)=O)NC(=O)[C@H](CC(N)=O)NC(=O)[C@H](CC(N)=O)NC(=O)[C@@H]1CCCN1C(=O)[C@H](CCCNC(=N)N)NC(=O)[C@@H](N)[C@@H](C)O)[C@@H](C)O)[C@@H](C)CC)C(=O)N[C@@H](CCC(N)=O)C(=O)N[C@@H](CCCNC(=N)N)C(=O)NCC(=O)N1CCC[C@H]1C(=O)NCC(=O)N[C@@H](CCCNC(=N)N)C(=O)N[C@@H](C)C(=O)N[C@@H](Cc1ccccc1)C(=O)N[C@H](C(=O)N[C@H](C(=O)N[C@H](C(=O)NCC(=O)N[C@@H](CCCCN)C(=O)O)[C@@H](C)CC)[C@@H](C)O)C(C)C [T26K]				Specific cytotoxicity by CTL (%) (p815 cell; target cell:effector cell 1:10): 55%; Specific cytotoxicity by CTL (%) (p815 cell; target cell:effector cell 1:20): 80%; Specific cytotoxicity by CTL (%) (p815 cell; target cell:effector cell 1:30): 87%
CC(C)C[C@H](NC(=O)CNC(=O)[C@H](CC(C)C)NC(=O)[C@@H](NC(=O)[C@H](CCCNC(=N)N)NC(=O)[C@H](CCCCN)NC(=O)[C@H](Cc1c[nH]cn1)NC(=O)[C@H](CC(C)C)NC(=O)[C@@H](N)C(C)C)[C@@H](C)O)C(=O)O [×4, VLHKRTLGL]	8%	16%	21%	
AMSTTDLEA [×5, AMSTTDLEA]	16%	24%	31%	
CLFKDWEEL (Hepatitis B virus) [×6, peptide derived from HBV X protein, position 115-123]	11%	16%	23%	Binding to MHC Class I molecules at the surface of T2 cell [1]: successfully bind; Recognition of peptide by cultured blood cells (CTL) (T2 cells; blood cells from anti-HBV antibody positive donors): recognized by cultured blood cells
DLMGYIPL [D8L, DLMGYIPL]				Specific cytotoxicity by CTL (%) (RMA cell or EL4 cell; target cell:effector cell 1:10): 5.5%; Specific cytotoxicity by CTL (%) (RMA cell or EL4 cell; target cell:effector cell 1:20): 18%; Specific cytotoxicity by CTL (%) (RMA cell or EL4 cell; target cell:effector cell 1:30): 30%
EIRLKVFVL [×7, EIRLKVFVL]	12%	19%	24%	
HLSLRGLFV [×3, HLSLRGLFV]	10%	17%	20%	
TLPSPSSSA [×2, TLPSPSSSA]	5%	10%	11%	
VLCLRPVGA [×1, VLCLRPVGA]	6%	11%	15%	
